Experimental findings from patent US7335776B2, “Remedies for depression containing EP1 antagonist as the active ingredient” (Ono Pharmaceutical Co., Ltd., priority 2002, dated 2008) are described below.

One data set concerns male ddy mice. Description: Tail-suspension test in mice. In kind it is in vivo. The conditions noted are these: for Inhibition (%): inhibition of immobility vs. vehicle; for Inhibition (%) / Immobility time: 10 mg/kg orally 1 hour before measurement, ten animals per group; for Immobility time / Immobility time as compared with that in the vehicle treated group: tail suspension; for Immobility time: immobility time for 10 minutes; for Immobility time as compared with that in the vehicle treated group: rate of inhibition statistically significant. As to the method: It was confirmed by the following experiments that the compounds of formula of (IA)-(IK) could be useful for the treatment of depression. The following paper can be referred to about a tail-suspension test and its testing system in mice. • 1) Psychopharmacology (1985) 85: 367-370 • 2) Prog. Neuro-Psychopharmacol. & Biol. Psychiat. 1987 Vol. 11, 659-671 (1) Tail-Suspension Test in Mice
The test compound (10 mg/kg animal body weight) was administered orally to male ddy mice weighing around 30 g 1 hour before the beginning of measurement. The mice were suspended by their tail on the hook of Tail Suspension TEST System (Neuroscience, Inc., Model NS-TST01-SS2) using adhesive tape. The subsequent immobility time for 10 minutes was measured. If the mice have none of administration, they get about 300 seconds as an immobility time in this experiment. Generally, the medicine having an anti-depressive action shortens this immobility time.
In addition, in any case, ten animals were used for each group.

In another data set the test system is male SD (IGS) rat. Description: Forced swim test in rats. In kind it is in vivo. To be noted: for Immobility time / Immobility time as compared with that in the vehicle treated group: forced swim; for Immobility time: 5 minutes observation on 2nd day; for Immobility time / Inhibition (%): test compound orally 5 mL/kg (desipramine intraperitoneally 2 mL/kg) after 1st examination and 1 hour before 2nd, twelve animals per group; for Immobility time as compared with that in the vehicle treated group: rate of inhibition statistically significant; for Inhibition (%): inhibition of immobility vs. vehicle. As to the method:
The seven-week old male SD (IGS) rat freely fed was solely put into the forced swimming equipment (the cylinder (Neuroscience, Inc.) of diameter of inner 19 cm, and height 40 cm, depth-sounding 17 cm, water temperature of 23±1° C.) manufactured with the transparent acrylics board, and let it swim for 15 minutes. The rat was immediately dried after the end of trial and was returned to the home cage. […] In this time, the behavior of rat is distinguished by immobile state, struggling, submerging and swimming. The immobility time, period that rats were floating on the water by taking their head outside of the water without stroking by both legs, were measured. In addition, the water in equipment was exchanged for every trial. Moreover, one trial was conducted for each animal.
The test compound was administered orally by 5 mL/kg dosage immediately after the end of the examination on the 1st, and 1 hour before the examination on the 2nd. And, the positive control compound (desipramine; […]) was similarly administered intraperitoneally by 2 mL/kg dosage immediately after the end of the examination on the 1st, and 1 hour before the examination on the 2nd.
In addition, in any case, twelve animals were used for each group.

Data set [1] can be described thus: Toxicity (LD50 by oral administration to mouse). The conditions noted are these: in vivo. The method, then:
The toxicity of the compounds of the present invention is very low and therefore, it is confirmed that these compounds are safe for use as medicine. For example, LD50 values of the compound A and B of the present invention by oral administration to mouse are 2000 mg/kg and over.

Bounds are passed on as bounds.

As for `Cc1ccc(S(=O)(=O)N(CC(C)C)c2cc(C)c(C)cc2OCc2ccc(C(=O)O)cc2C)o1` [Compound E, 3-methyl-4-[2-[N-isobutyl-N-(5-methyl-2-furylsulfonyl)amino]4,5-dimethylphenoxymethyl]benzoic acid], in the data set on male ddy mice, the “Inhibition (%)” value is on record as 38 ± 12 %, the “Immobility time” value was 185 ± 36 s and the “Immobility time as compared with that in the vehicle treated group” value (shortened to “Immobility time as compared with that”) is given as “shortened”.
As for `Cc1ccc(C(=O)N(c2ccc(C(F)(F)F)cc2OCc2ccc(/C=C/C(=O)O)cc2)C(C)C)o1` [Compound J, 4-[5-trifluoromethyl-2-[N-(5-methyl-2-furylcarbonyl)-N-isopropylamino]phenoxymethyl]cinnamic acid], in the data set on male SD (IGS) rat, the “Immobility time” value was found to be 194 ± 16 s, the “Immobility time as compared with that” value is “shortened” and the “Inhibition (%)” value worked out at 20 ± 7 %.
In the case of `Cc1csc(S(=O)(=O)N(CC(C)C)c2cc3c(cc2OCc2ccc(C(=O)O)cc2)CCC3)n1` [Compound K, 4-[6-[N-isobutyl-N-(4-methyl-2-thizolylsulfonyl)amino]indan-5-yloxymethyl]benzoic acid], in the data set on male SD (IGS) rat, the “Immobility time” value amounted to 172 ± 17 s, the “Immobility time as compared with that” value was “shortened” and the “Inhibition (%)” value is given as 29 ± 7 %.
As for `CCCN(c1cc(C)c(C)cc1OCc1ccc(C(=O)O)cc1)S(=O)(=O)c1ccc(C)o1` [Compound H, 4-[4,5-dimethyl-2-[N-(5-methyl-2-furylsulfonyl)-N-propylamino]phenoxymethyl]benzoic acid], in the data set on male SD (IGS) rat, the “Immobility time” value was 156 ± 21 s, the “Immobility time as compared with that” value is listed as “shortened” and the “Inhibition (%)” value turned out to be 35 ± 9 %.
In general, LD50 refers to the dose at which mortality reaches 50%. A lower LD50 goes with greater toxicity. As to `Cc1ccc(S(=O)(=O)N(c2ccc(C(F)(F)F)cc2OCc2ccc(C(=O)O)cc2)C(C)C)o1` [Compound B, 4-[2-[N-isopropyl-N-(5-methyl-2-furylsulfonyl)amino]-5-trifluoromethylphenoxymethyl]benzoic acid], the LD50 in data set [1] was at least 2000 mg/kg. In addition, in the data set on male SD (IGS) rat, the “Immobility time” value is 163 ± 21 s, the “Immobility time as compared with that” value is “shortened” and the “Inhibition (%)” value is given as 31 ± 9 %. In the data set on male ddy mice, the “Inhibition (%)” value is 35 ± 8 %, the “Immobility time” value is 194 ± 23 s and the “Immobility time as compared with that” value is listed as “shortened”.
Consider `Cc1cc(Cl)ccc1S(=O)(=O)NC[C@H]1C2CCC(CC2)[C@H]1/C=C\CCCC(=O)O` [Compound A, 6-[(2S, 3S)-3-(4-chloro-2-methylphenylsulfonylaminomethyl)-bicyclo[2.2.2]octan-2-yl]-5Z-hexenoic acid], for which, in the data set on male ddy mice, the “Inhibition (%)” value came out at 30 ± 7 %, the “Immobility time” value came out at 202 ± 20 s and the “Immobility time as compared with that” value is “shortened”.
The matching figures for `CC(C)CN(c1ccc(C(F)(F)F)cc1OCc1ccc(C=CC(=O)O)cc1)S(=O)(=O)c1ccco1` [Compound C, 4-[2-(N-isobutyl-2-furanylsulfonylamino)-5-trifluoromethylphenoxymethyl]cinnamic acid]: 23 ± 7 %, 212 ± 20 s and “shortened”.
The like results for `Cc1ccc(S(=O)(=O)N(CC(C)C)c2cc3c(cc2OCc2ccc(/C=C/C(=O)O)cc2)CCC3)o1` [Compound F, 4-[6-[N-isobutyl-N-(5-methyl-2-furylsulfonyl)amino]indan-5-yloxymethyl]cinnamic acid] were, in that order, 47 ± 9 %, 160 ± 26 s and “shortened”.
The matching figures for `Cc1ccc(S(=O)(=O)N(CC(C)C)c2cc(C)c(C)cc2OCc2ccc(C(=O)O)cc2)o1` [Compound D, 4 [2-[N-isobutyl-N-(5-methyl-2-furylsulfonyl)amino]-4,5-dimethylphenoxymethyl]benzoic acid]: 27 ± 8 %, 217 ± 24 s and “shortened”.
As for `CNCCCN1c2ccccc2CCc2ccccc21` [Desipramine, desipramine, reference compound], in the data set on male SD (IGS) rat, the “Immobility time” value stood at 112 ± 15 s and the “Inhibition (%)” value is reported as 53 ± 6 %.
